Results on 20 compounds are retold here after patent US9539252B2, “Piperazine-substituted benzothiophene derivatives as antipsychotic agents” (OTSUKA PHARMACEUTICAL CO., LTD., priority 2011, dated 2017).

The data set in a line: Solubility in oil (sesame oil, benzyl benzoate), visual observation. As to conditions: oil or lipid, thermodynamic from solid.

One may read the solubility as how much of the substance goes into solution per volume. Higher therefore signals a readily soluble substance.

Procedure: Each of the Example compounds was examined for the solubility in oil (sesame oil, benzyl benzoate).
For the specific gravity of an oil, the following values were applied. • sesame oil (specific gravity: 0.914-0.921) • benzyl benzoate (specific gravity: 1.123) • (Method)
Example compound is measured in a microtube and an oil (sesame oil, or, benzyl benzoate) in an amount to make the concentration 10 mg/0.1 ml is added. After stirring, the solubility is evaluated by visual observation. When the compound is not dissolved, the mixture is heated, and the solubility is evaluated after cooling.

Regarding `O=C(OCn1c(=O)ccc2ccc(OCCCCN3CCN(c4cccc5sccc45)CC3)cc21)c1cccs1` [Example 141, thiophene-2-carboxylic acid 7-[4-(4-benzo[b]thiophen-4-ylpiperazin-1-yl)butoxy]-2-oxo-2H-quinolin-1-ylmethyl ester], the solubility (benzyl benzoate) is over 100 mg/mL.

Regarding `CCCCCCCCCCOC(=O)OCN1C(=O)CCc2ccc(OCCCCN3CCN(c4cccc5sccc45)CC3)cc21` [Example 142, carbonic acid 7-[4-(4-benzo[b]thiophen-4-ylpiperazin-1-yl)butoxy]-2-oxo-3,4-dihydro-2H-quinolin-1-ylmethyl ester decyl ester], the solubility is, setting by setting: (benzyl benzoate) over 100 mg/mL; (sesame oil) over 100 mg/mL.

`CCCCCCCCCCCCCCCCOC(=O)OCN1C(=O)CCc2ccc(OCCCCN3CCN(c4cccc5sccc45)CC3)cc21` [Example 144, carbonic acid 7-[4-(4-benzo[b]thiophen-4-ylpiperazin-1-yl)butoxy]-2-oxo-3,4-dihydro-2H-quinolin-1-ylmethyl ester hexadecyl ester] yielded a solubility (benzyl benzoate) of over 100 mg/mL and a solubility (sesame oil) of over 100 mg/mL.

`CCCCCCCOC(=O)OCN1C(=O)CCc2ccc(OCCCCN3CCN(c4cccc5sccc45)CC3)cc21` [Example 145, carbonic acid 7-[4-(4-benzo[b]thiophen-4-ylpiperazin-1-yl)butoxy]-2-oxo-3,4-dihydro-2H-quinolin-1-ylmethyl ester heptyl ester]: the solubility (benzyl benzoate) was over 100 mg/mL.

For `O=C(OCn1c(=O)ccc2ccc(OCCCCN3CCN(c4cccc5sccc45)CC3)cc21)OC1CCCCC1` [Example 146, carbonic acid 7-[4-(4-benzo[b]thiophen-4-ylpiperazin-1-yl)butoxy]-2-oxo-2H-quinolin-1-ylmethyl ester cyclohexyl ester], the solubility (benzyl benzoate) was over 100 mg/mL.

Regarding `O=C(OCN1C(=O)CCc2ccc(OCCCCN3CCN(c4cccc5sccc45)CC3)cc21)OCC(F)(F)F` [Example 147, carbonic acid 7-[4-(4-benzo[b]thiophen-4-ylpiperazin-1-yl)butoxy]-2-oxo-3,4-dihydro-2H-quinolin-1-ylmethyl ester 2,2,2-trifluoro-ethyl ester], the solubility (benzyl benzoate) is over 100 mg/mL.

For `CC(C)(C)OC(=O)CC(=O)OCn1c(=O)ccc2ccc(OCCCCN3CCN(c4cccc5sccc45)CC3)cc21` [Example 148, malonic acid 7-[4-(4-benzo[b]thiophen-4-ylpiperazin-1-yl)butoxy]-2-oxo-2H-quinolin-1-ylmethyl ester tert-butyl ester], under “benzyl benzoate”, the solubility was over 100 mg/mL.

Regarding `CCCCCCCCOC(=O)OCN1C(=O)CCc2ccc(OCCCCN3CCN(c4cccc5sccc45)CC3)cc21` [Example 149, carbonic acid 7-[4-(4-benzo[b]thiophen-4-ylpiperazin-1-yl)butoxy]-2-oxo-3,4-dihydro-2H-quinolin-1-ylmethyl ester octyl ester], the solubility reads like this: (benzyl benzoate) over 100 mg/mL; (sesame oil) over 100 mg/mL.

`O=C(OCN1C(=O)CCc2ccc(OCCCCN3CCN(c4cccc5sccc45)CC3)cc21)OC1CCCCC1` [Example 150, carbonic acid 7-[4-(4-benzo[b]thiophen-4-ylpiperazin-1-yl)butoxy]-2-oxo-3,4-dihydro-2H-quinolin-1-ylmethyl ester cyclohexyl ester]: the solubility is over 100 mg/mL (benzyl benzoate) and over 100 mg/mL (sesame oil).

With `CCCCOC(=O)OCN1C(=O)CCc2ccc(OCCCCN3CCN(c4cccc5sccc45)CC3)cc21` [Example 151, carbonic acid 7-[4-(4-benzo[b]thiophen-4-ylpiperazin-1-yl)butoxy]-2-oxo-3,4-dihydro-2H-quinolin-1-ylmethyl ester butyl ester], the solubility (benzyl benzoate) was over 100 mg/mL.

`CN(Cc1ccccn1)C(=O)OCn1c(=O)ccc2ccc(OCCCCN3CCN(c4cccc5sccc45)CC3)cc21` [Example 152, N-methyl-N-pyridin-2-ylmethylcarbamic acid 7-[4-(4-benzo[b]thiophen-4-ylpiperazin-1-yl)butoxy]-2-oxo-2H-quinolin-1-ylmethyl ester] registered a solubility (benzyl benzoate) of over 100 mg/mL.

As to `O=C(OCn1c(=O)ccc2ccc(OCCCCN3CCN(c4cccc5sccc45)CC3)cc21)N1CCSCC1` [Example 153, thiomorpholine-4-carboxylic acid 7-[4-(4-benzo[b]thiophen-4-ylpiperazin-1-yl)butoxy]-2-oxo-2H-quinolin-1-ylmethyl ester], the solubility (benzyl benzoate) is over 100 mg/mL.

Regarding `CCCCCCCCCCCC(=O)OCN1C(=O)CC(C)(C)c2ccc(OCCCCN3CCN(c4cccc5sccc45)CC3)cc21` [Example 154, dodecanoic acid 7-[4-(4-benzo[b]thiophen-4-ylpiperazin-1-yl)butoxy]-4,4-dimethyl-2-oxo-3,4-dihydro-2H-quinolin-1-ylmethyl ester], the solubility runs as follows: (benzyl benzoate) over 100 mg/mL; (sesame oil) over 100 mg/mL.

`CCCCCCCCCCOC(=O)OCN1C(=O)CC(C)(C)c2ccc(OCCCCN3CCN(c4cccc5sccc45)CC3)cc21` [Example 156, carbonic acid 7-[4-(4-benzo[b]thiophen-4-ylpiperazin-1-yl)-butoxy]-4,4-dimethyl-2-oxo-3,4-dihydro-2H-quinolin-1-ylmethyl ester decyl ester]: the solubility reads like this: (benzyl benzoate) over 100 mg/mL; (sesame oil) over 100 mg/mL.

Regarding `CCCCCCCCCCNC(=O)OCN1C(=O)CC(C)(C)c2ccc(OCCCCN3CCN(c4cccc5sccc45)CC3)cc21` [Example 158, N-decylcarbamic acid 7-[4-(4-benzo[b]thiophen-4-ylpiperazin-1-yl)-butoxy]-4,4-dimethyl-2-oxo-3,4-dihydro-2H-quinolin-1-ylmethyl ester], the solubility reads like this: (benzyl benzoate) over 100 mg/mL; (sesame oil) over 100 mg/mL.

As to `COC(=O)OCn1c(=O)ccc2ccc(OCCCCN3CCN(c4cccc5sccc45)CC3)cc21` [Example 163, carbonic acid 7-[4-(4-benzo[b]thiophen-4-ylpiperazin-1-yl)butoxy]-2-oxo-2H-quinolin-1-ylmethyl ester methyl ester], the solubility (benzyl benzoate) is over 100 mg/mL.

In turn, `CCCOC(=O)OCn1c(=O)ccc2ccc(OCCCCN3CCN(c4cccc5sccc45)CC3)cc21` [Example 165, carbonic acid 7-[4-(4-benzo[b]thiophen-4-ylpiperazin-1-yl)butoxy]-2-oxo-2H-quinolin-1-ylmethyl ester propyl ester] displayed a solubility (benzyl benzoate) of over 100 mg/mL.

On to `CCCCOC(=O)OCn1c(=O)ccc2ccc(OCCCCN3CCN(c4cccc5sccc45)CC3)cc21` [Example 168, carbonic acid 7-[4-(4-benzo[b]thiophen-4-ylpiperazin-1-yl)butoxy]-2-oxo-2H-quinolin-1-ylmethyl ester butyl ester], for which the solubility (benzyl benzoate) was over 100 mg/mL.

Where the note is “benzyl benzoate”, `CC(C)COC(=O)OCn1c(=O)ccc2ccc(OCCCCN3CCN(c4cccc5sccc45)CC3)cc21` [Example 170, carbonic acid 7-[4-(4-benzo[b]thiophen-4-ylpiperazin-1-yl)butoxy]-2-oxo-2H-quinolin-1-ylmethyl ester isobutyl ester] showed a solubility of over 100 mg/mL.

Consider `CCCCCCOC(=O)OCn1c(=O)ccc2ccc(OCCCCN3CCN(c4cccc5sccc45)CC3)cc21` [Example 175, carbonic acid 7-[4-(4-benzo[b]thiophen-4-ylpiperazin-1-yl)butoxy]-2-oxo-2H-quinolin-1-ylmethyl ester hexyl ester], for which the solubility (benzyl benzoate) was over 100 mg/mL.
